This test relates to mono-methyl arginine in RKO cells. The experiment in a line: RKO Methylation Assay, In Cell Western for mono-methyl arginine and DNA content. Type of test: cell-based. The following applies: Homo sapiens, 72 hours, percent activation of mono-methyl arginine signal. From the text: RKO Methylation Assay RKO adherent cells were purchased from ATCC (American Type Culture Collection), Manassas, Va., USA. DMEM/Glutamax medium, penicillin-streptomycin, heat inactivated fetal bovine serum, 0.05% trypsin and D-PBS were purchased from Life Technologies, Grand Island, N.Y., USA. Odyssey blocking buffer, 800CW goat anti-rabbit IgG (H+L) antibody, and Licor Odyssey infrared scanner were purchased from Licor Biosciences, Lincoln, Nebr., USA. Mono-methyl arginine antibody was purchased from Cell Signaling Technology, Danvers, Mass., USA. Methanol was purchased from VWR, Franklin, Mass., USA. 10% Tween 20 was purchased from KPL, Inc., Gaithersburg, Md., USA. DRAQ5 was purchased from Biostatus Limited, Leicestershire, UK. RKO adherent cells were maintained in growth medium (DMEM/Glutamax medium supplemented with 10% v/v heat inactivated fetal bovine serum and 100 units/mL penicillin-streptomycin) and cultured at 37° C. under 5% CO2. Cell Treatment, in Cell Western (ICW) for Detection of Mono-Methyl Arginine and DNA Content. RKO cells were seeded in assay medium at a concentration of 20,000 cells per mL to a poly-D-lysine coated 384 well culture plate (BD Biosciences 356697) with 50 μL per well. Compound (100 nL) from a 96-well source plate was added directly to 384 well cell plate. Plates were incubated at 37° C., 5% CO2 for 72 hours. After three days of incubation, plates were brought to room temperature outside of the incubator for ten minutes and blotted on paper towels to remove cell media. 50 μL of ice cold 100% methanol was added directly to each well and incubated for 30 min at room temperature. After 30 min, plates were transferred to a Biotek EL406 plate washer and washed 2 times with 100 μL per well of wash buffer (IX PBS). Next 60 μL per well of Odyssey blocking buffer (Odyssey Buffer with 0.1% Tween 20 (v/v)) were added to each plate and incubated 1 hour at room temperature. Blocking buffer was removed and 20 μL per well of primary antibody was added (mono-methyl arginine diluted 1:200 in Odyssey buffer with 0.1% Tween 20 (v/v)) and plates were incubated overnight (16 hours) at 4° C. Plates were washed 5 times with 100 μL per well of wash buffer. Next 20 μL per well of secondary antibody was added (1:200 800CW goat anti-rabbit IgG (H+L) antibody, 1:1000 DRAQ5 (Biostatus limited) in Odyssey buffer with 0.1% Tween 20 (v/v)) and incubated for 1 hour at room temperature. The plates were washed 5 times with 100 μL per well wash buffer then 2 times with 100 μL per well of water. Plates were allowed to dry at room temperature then imaged on the Licor Odyssey machine which measures integrated intensity at 700 nm and 800 nm wavelengths. Both 700 and 800 channels were scanned. Calculations: First, the ratio for each well was determined by: Each plate included fourteen control wells of DMSO only treatment (minimum activation) as well as fourteen control wells for maximum activation treated with 20 μM of a reference compound. The average of the ratio values for each control type was calculated and used to determine the percent activation for each test well in the plate. Reference compound was serially diluted three-fold in DMSO for a total of nine test concentrations, beginning at 20 μM. Percent activation was determined and EC30 curves were generated using triplicate wells per concentration of compound.
With `CN(CCN)Cc1c[nH]nc1-c1cncnc1` [Compound 4], the EC30 (commonly the point of the concentration-response curve where the effect stands at 30%) is no less than 12 µM.

As to `CN(CCN)Cc1c[nH]nc1-c1cnn(C)c1` [Compound 8], the EC30 was no less than 12 µM.

As to `CN(CCN)Cc1c[nH]nc1-c1ccc2scnc2c1` [Compound 9], the EC30 lay within 3.01 to 12 µM.

On to `CN(CCN)Cc1c[nH]nc1-c1cn[nH]c1` [Compound 12], for which the EC30 was no less than 12 µM.

The compound `CN(CCN)Cc1c[nH]nc1-c1cnc2[nH]ccc2c1` [Compound 13] gave an EC30 of 3.01 to 12 µM.

In the case of `CN(CCN)Cc1c[nH]nc1-c1cc[nH]n1` [Compound 14], the EC30 was no less than 12 µM.

In turn, `CN(CCN)Cc1c[nH]nc1-c1ccnn1C` [Compound 15] had an EC30 of no less than 12 µM.

The compound `CCn1cc(-c2n[nH]cc2CN(C)CCN)cn1` [Compound 16] showed an EC30 of no less than 12 µM.

`CN(CCN)Cc1c[nH]nc1-c1cnn(-c2ccccc2)c1` [Compound 17] returned an EC30 of no more than 3 µM.

For `CN(CCN)Cc1c[nH]nc1-c1cnn(CCO)c1` [Compound 18], the EC30 is no less than 12 µM.

As to `CN(CCN)Cc1c[nH]nc1-c1ccc2cnn(C)c2c1` [Compound 19, N^1-methyl-N^1-((3-(1-methyl-1H-indazol-6-yl)-1H-pyrazol-4-yl)methyl)ethane-1,2-diamine], the EC30 was in the range of 3.01 to 12 µM.

`CN(CCN)Cc1c[nH]nc1-c1ccc2ncnn2c1` [Compound 20]: the EC30 is no less than 12 µM.

Compound `CN(CCN)Cc1c[nH]nc1-c1ccc2nccn2c1` [Compound 21, N^1-((3-(imidazo[1,2-a]pyridin-6-yl)-1H-pyrazol-4-yl)methyl)-N^1-methylethane-1,2-diamine] gave an EC30 of 3.01 to 12 µM.

Turning to `CC(C)n1cc(-c2n[nH]cc2CN(C)CCN)cn1` [Compound 22], the EC30 lay in the range of 3.01 to 12 µM.

`CC(C)Cn1cc(-c2n[nH]cc2CN(C)CCN)cn1` [Compound 23, N^1-((2′-isobutyl-3,4′-bi(1H-pyrazol)-4-yl)methyl)-N^1-methylethane-1,2-diamine] yielded an EC30 of no more than 3 µM.

Compound `CN(CCN)Cc1c[nH]nc1-c1cnn(Cc2ccccc2)c1` [Compound 24, N^1-((1′-benzyl-3,4′-bi(1H-pyrazol)-4-yl)methyl)-N^1-methylethane-1,2-diamine] showed an EC30 of no more than 3 µM.

In turn, `Cc1n[nH]c(C)c1-c1n[nH]cc1CN(C)CCN` [Compound 25] registered an EC30 of no less than 12 µM.

`CN(CCN)Cc1c[nH]nc1-c1ccc2[nH]ncc2c1` [Compound 27, N^1-((3-(1H-indazol-5-yl)-1H-pyrazol-4-yl)methyl)-N^1-methylethane-1,2-diamine]: the EC30 is no more than 3 µM.

`CN(CCN)Cc1c[nH]nc1-c1cnc(C2CC2)nc1` [Compound 28]: the EC30 is no less than 12 µM.

These data come from US9630961B2, “Arginine methyltransferase inhibitors and uses thereof” (Epizyme, Inc., priority 2013, dated 2017).
